Patent publication US20040131648A1, “Nuclear hormone receptor compounds, products and methods employing same” (The Procter & Gamble Company, priority 2002, published 2004)

Tested on: area of the skin in need of beautifying
Experiment: Topical administration of beta-ionol analog to human skin
Assay type: in vivo
Details: daily treatments, after two weeks
Protocol: A Beta-ionol analog, melafleur alcohol, is administered topically to a human directly onto an area of the skin in need of beautifying.

CC1(C)CCCC2=C1CC(CO)CC2 (stereo not shown) [melafleur alcohol, 2-Naphthalenemethanol, 1,2,3,4,5,6,7,8-octahydro-8,8-dimethyl-]
health and vitality of treated areas of the skin: increased health and vitality
